# In patent publication US10105357B2, “Indication of antibiotic drugs for preparation of cancer inhibition pharmaceutical composition” (LAUNX BIOMEDICAL CO., LTD., priority 2014, dated 2018):
# Structures can show the parent of a compound that is named as a salt. Where two headings read alike, the source gives them in different places. Positions of bridges follow the written chain, without caps; N, C: chain ends. Non-standard residues stand in square brackets, D forms with d. Residues, ends and D or L forms follow the SMILES beside them. *: point of attachment. Ileψ(thiazoline)Cys = CC[C@H](C)[C@H](N)C1=N[C@H](C(=O)*)CS1; dOrn = NCCC[C@@H](N)C(=O)O
# Assays:
# Format in all cases: cell-based, human
# [1] = test system: HL-60 (Acute Promyelocytic Leukemia); assay: Cell viability analysis, leukemia HL-60; conditions: for viability at 10 µM: Homo sapiens, HL-60, 72 h
# [2] = test system: TSGH-8301 (Urinary Bladder Carcinoma); assay: Cell viability analysis, bladder cancer TSGH-8301; conditions: 72 h; for viability at 10 µM: Homo sapiens
# [3] = test system: PC3 (p53−) (Prostate Adenocarcinoma); assay: Cell viability analysis, prostate cancer PC3; conditions: 72 h; for viability at 10 µM: Homo sapiens
# [4] = test system: AGS (Gastric Adenocarcinoma); assay: Cell viability analysis, gastric cancer AGS; conditions: 72 h; for viability at 10 µM: Homo sapiens
# [5] = test system: LoVo (Colorectal Adenocarcinoma); assay: Cell viability analysis, colon cancer LoVo; conditions: 72 h; for viability at 10 µM: Homo sapiens, LoVo, read-out: cell viability (survival rate), LoVo, drug 10 μM, 72 hours, WST-1, OD450 nm
# [6] = test system: MCF7 (Mammary Gland, Adenocarcinoma); assay: Cell viability analysis, breast cancer MCF7; conditions: for viability at 10 µM: Homo sapiens, MCF7, 72 h
# [7] = test system: A549 (Lung Adenocarcinoma); assay: Cell viability analysis, lung cancer A549; conditions: for viability at 10 µM: Homo sapiens, A549, 72 h
# [8] = test system: HeLa (Cervix Adenocarcinoma); assay: Cell viability analysis, cervical cancer HeLa; conditions: 72 h; for viability at 10 µM: Homo sapiens, HeLa
# [9] = test system: MKN-45 (Gastric Adenocarcinoma); assay: Cell viability analysis, gastric cancer MKN-45; conditions: for viability at 10 µM: Homo sapiens, MKN-45, 72 h
# [10] = test system: HI650 (Lung Adenocarcinoma); assay: Cell viability analysis, lung cancer HI650; conditions: for viability at 10 µM: Homo sapiens, NCI-H1650, 72 h
# cancer cell lines = assay: Cell viability analysis (WST-1) on cancer cell lines; conditions: drug 10 μM, 72 hours, WST-1; Table 3
# [11] = test system: A375 (Amelanotic Melanoma); assay: Cell viability analysis, skin cancer A375; conditions: for viability at 10 µM: Homo sapiens, A-375, 72 h
# [12] = test system: HepG2 (Hepatocellular Carcinoma); assay: Cell viability analysis, hepatic cancer HepG2; conditions: for viability at 10 µM: Homo sapiens, HepG2, 72 h
# [13] = read-out: cell viability (survival rate), HL-60, drug 10 μM, 72 hours, WST-1, OD450 nm
# [14] = read-out: cell viability (survival rate), TSGH, drug 10 μM, 72 hours, WST-1, OD450 nm
# [15] = read-out: cell viability (survival rate), PC3, drug 10 μM, 72 hours, WST-1, OD450 nm
# [16] = read-out: cell viability (survival rate), AGS, drug 10 μM, 72 hours, WST-1, OD450 nm
# [17] = read-out: cell viability (survival rate), MCF7, drug 10 μM, 72 hours, WST-1, OD450 nm
# [18] = read-out: cell viability (survival rate), A549, drug 10 μM, 72 hours, WST-1, OD450 nm
# [19] = read-out: cell viability (survival rate), HeLa, drug 10 μM, 72 hours, WST-1, OD450 nm
# [20] = read-out: cell viability (survival rate), MKN-45, drug 10 μM, 72 hours, WST-1, OD450 nm
# [21] = read-out: cell viability (survival rate), H1650, drug 10 μM, 72 hours, WST-1, OD450 nm
# [22] = read-out: cell viability (survival rate), A375, drug 10 μM, 72 hours, WST-1, OD450 nm
# [23] = read-out: cell viability (survival rate), HepG2, drug 10 μM, 72 hours, WST-1, OD450 nm
# [24] = drug 10 μM, 72 hours, WST-1, OD450 nm, read-out: cell viability (survival rate), HL-60
# [25] = drug 10 μM, 72 hours, WST-1, OD450 nm, read-out: cell viability (survival rate), TSGH
# [26] = drug 10 μM, 72 hours, WST-1, OD450 nm, read-out: cell viability (survival rate), PC3
# [27] = drug 10 μM, 72 hours, WST-1, OD450 nm, read-out: cell viability (survival rate), AGS
# [28] = drug 10 μM, 72 hours, WST-1, OD450 nm, read-out: cell viability (survival rate), MCF7
# [29] = drug 10 μM, 72 hours, WST-1, OD450 nm, read-out: cell viability (survival rate), A549
# [30] = drug 10 μM, 72 hours, WST-1, OD450 nm, read-out: cell viability (survival rate), HeLa
# [31] = drug 10 μM, 72 hours, WST-1, OD450 nm, read-out: cell viability (survival rate), MKN-45
# [32] = drug 10 μM, 72 hours, WST-1, OD450 nm, read-out: cell viability (survival rate), H1650
# [33] = drug 10 μM, 72 hours, WST-1, OD450 nm, read-out: cell viability (survival rate), A375
# [34] = drug 10 μM, 72 hours, WST-1, OD450 nm, read-out: cell viability (survival rate), HepG2
SMILES,inhibition effect on different cancer cell lines (cancer cell lines),"viability at 10 µM [1, 13] [%]","viability at 10 µM [2, 14] [%]","viability at 10 µM [3, 15] [%]","viability at 10 µM [4, 16] [%]",viability at 10 µM [5] [%],"viability at 10 µM [6, 17] [%]","viability at 10 µM [7, 18] [%]","viability at 10 µM [8, 19] [%]","viability at 10 µM [9, 20] [%]","viability at 10 µM [10, 21] [%]","viability at 10 µM [11, 22] [%]","viability at 10 µM [12, 23] [%]",also measured
CC1(C)S[C@@H]2[C@H](NC(=O)[C@H](N)c3ccccc3)C(=O)N2[C@H]1C(=O)O [Ampicillin Trihydrate],significant inhibition effect,,,,,,,,,,,,,"cell viability (survival rate), HL-60 ([1]; human, 72 h, 10 µM): 92.7; cell viability (survival rate), TSGH ([2]; human, 10 µM): 61.3; cell viability (survival rate), PC3 ([3]; human, 10 µM): 65.3; cell viability (survival rate), AGS ([4]; human, 10 µM): 95.3; cell viability (survival rate), LoVo ([5]; human, 10 µM): 78.4; cell viability (survival rate), MCF7 ([6]; human, 72 h, 10 µM): 36.5; cell viability (survival rate), A549 ([7]; human, 72 h, 10 µM): 41.9; cell viability (survival rate), HeLa ([8]; human, 10 µM): 59.3; cell viability (survival rate), MKN-45 ([9]; human, 72 h, 10 µM): 56.3; cell viability (survival rate), H1650 ([10]; human, 72 h, 10 µM): 63.6; cell viability (survival rate), A375 ([11]; human, 72 h, 10 µM): 53.7; cell viability (survival rate), HepG2 ([12]; human, 72 h, 10 µM): 92.4"
"NC1CCN(c2c(F)cc3c(=O)c(C(=O)O)cn(C4CC4)c3c2Cl)C1 (centres unmarked) [Clinafloxacin (PD127391), Clinafloxacin]",significant inhibition effect,71.2,83.3,36.7,74.2,92.7,78.6,67.5,97,91.3,72.4,59.3,73.8,
CN(C)c1ccc(C(=C2C=CC(=[N+](C)C)C=C2)c2ccc(N(C)C)cc2)cc1 [Crystal violet],significant inhibition effect,37.3,44.1,31.8,52.7,62.3,46,37.5,38.9,44.8,68.5,32,70.3,
O=C(N/N=C/c1ccc([N+](=O)[O-])o1)c1ccc(O)cc1 [Nifuroxazide],significant inhibition effect,38.8,56.2,92,36.7,58.3,80.1,33.2,66.6,51,57.6,51.6,73,
O=C(O)c1cn(-c2ccc(F)cc2)c2cc(N3CCNCC3)c(F)cc2c1=O [Sarafloxacin HCl],significant inhibition effect,,,,,106,,,,,,,,"viability at 10 µM [1, 24]: 112%; viability at 10 µM [2, 25]: 122%; viability at 10 µM [3, 26]: 80.9%; viability at 10 µM [4, 27]: 88%; viability at 10 µM [6, 28]: 107%; viability at 10 µM [7, 29]: 98.6%; viability at 10 µM [8, 30]: 81%; viability at 10 µM [9, 31]: 75.3%; viability at 10 µM [10, 32]: 58.9%; viability at 10 µM [11, 33]: 97.8%; viability at 10 µM [12, 34]: 91.1%"
"CCn1cc(C(=O)O)c(=O)c2cc(F)c(N3CCNCC3)cc21 [Norfloxacin (Norxacin), Norfloxacin]",significant inhibition effect,87.7,75.9,72.2,63.8,88,94.8,84.8,78.7,68.9,75,73.8,90.5,
"COc1cnc(NS(=O)(=O)c2ccc(N)cc2)nc1 [Sulfameter (Bayrena), Sulfameter]",significant inhibition effect,,,,,89.9,,,,,,,,"viability at 10 µM [1, 24]: 110%; viability at 10 µM [2, 25]: 78.6%; viability at 10 µM [3, 26]: 90.2%; viability at 10 µM [4, 27]: 67.4%; viability at 10 µM [6, 28]: 51.7%; viability at 10 µM [7, 29]: 59%; viability at 10 µM [8, 30]: 78.4%; viability at 10 µM [9, 31]: 58.6%; viability at 10 µM [10, 32]: 84.8%; viability at 10 µM [11, 33]: 89.2%; viability at 10 µM [12, 34]: 95.5%"
C[C@@H]1CC[C@H]2[C@@H](C)C(=O)O[C@@H]3O[C@@]4(C)CC[C@@H]1[C@]32OO4 [Artemisinin],significant inhibition effect,146,63.6,92.5,87.7,104,151,98.7,120,117,106,88.9,116,
CC[C@H](C)[C@H](N)C1=N[C@H](C(=O)N[C@@H](CC(C)C)C(=O)N[C@H](CCC(=O)O)C(=O)N[C@H](C(=O)N[C@H]2CCCCNC(=O)[C@H](CC(N)=O)NC(=O)[C@@H](CC(=O)O)NC(=O)[C@H](Cc3cnc[nH]3)NC(=O)[C@@H](Cc3ccccc3)NC(=O)[C@H]([C@@H](C)CC)NC(=O)[C@@H](CCCN)NC2=O)[C@@H](C)CC)CS1 [Bacitracin] ({Ileψ(thiazoline)Cys}-L[dE]IK[dOrn]I[dF]H[dD]N; lactam 4-C),significant inhibition effect,85.9,68.3,70,61.4,69.9,41.4,51.4,68.4,46.9,65.4,54.7,86.4,
CO/N=C(\C(=O)N[C@@H]1C(=O)N2C(C(=O)O)=C(CSC(=O)c3ccco3)CS[C@H]12)c1csc(N)n1 [Ceftiofur hydrochloride],significant inhibition effect,92.2,50.6,73.1,69.4,85,159,61.6,92.2,85.5,44,92.8,91.9,
CN1CCN(c2c(F)cc3c(=O)c(C(=O)O)cn4c3c2OCN4C)CC1 [Marbofloxacin],significant inhibition effect,105,91.6,78.4,81.2,108,92.3,83.8,88.2,112,80.3,86.8,95.6,
